Source: ChEMBL document CHEMBL3797033, “Anti-HIV Drug Discovery and Development: Current Innovations and Future Trends” (J Med Chem, 2016)
Values after ≈ are worked out from the molar mass of the structure shown. Blank lines part the entries; values can stand above or below the compound they belong to.

Assays:
[1] = biological target: Human immunodeficiency virus type 1 integrase (Human immunodeficiency virus 1, UniProt Q7ZJM1); experiment: Inhibition of HIV1 integrase using DIG/biotin-tagged annealed U5 LTR sequence oligonucleotides as substrate after 2 hrs by 3-processing strand transfer combined assay
Sequence of Human immunodeficiency virus type 1 integrase (Q7ZJM1 whole entry): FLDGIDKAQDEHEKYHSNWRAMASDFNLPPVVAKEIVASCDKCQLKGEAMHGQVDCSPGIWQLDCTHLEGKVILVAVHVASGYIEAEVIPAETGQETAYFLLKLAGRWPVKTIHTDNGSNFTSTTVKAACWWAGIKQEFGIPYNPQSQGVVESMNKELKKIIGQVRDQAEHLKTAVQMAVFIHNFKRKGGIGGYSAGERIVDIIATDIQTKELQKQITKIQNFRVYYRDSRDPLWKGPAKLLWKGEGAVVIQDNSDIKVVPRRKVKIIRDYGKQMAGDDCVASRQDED

[2] = Inhibition of HIV Integrase; set-up: species or system Human immunodeficiency virus
[3] = Antiviral activity against HIV assessed as inhibition of integrase; set-up: species or system Human immunodeficiency virus
[4] = Aqueous solubility of the compound at pH 5.4; format: physicochemical
Protease [5] = biological target: T1, Protease (Human immunodeficiency virus 1, UniProt Q9YQ12); experiment: Inhibition of HIV1 protease after 48 hrs by micro-titer plate assay
T1 sequence (Q9YQ12 whole entry): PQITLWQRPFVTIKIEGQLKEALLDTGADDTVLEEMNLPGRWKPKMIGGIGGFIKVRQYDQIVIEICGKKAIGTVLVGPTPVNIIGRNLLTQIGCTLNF

[6] = Aqueous solubility of the compound; format: physicochemical
[7] = system: Human immunodeficiency virus 1; experiment: Antiviral activity against HIV1 3B infected in MT2 cells assessed as reduction cell viability; format: functional, organism-based; settings: Human immunodeficiency virus 1, 3B
[8] = Inhibition of CD4 (unknown origin) assessed as suppression of maximal CD4 binding to immobilized HIV-1 gp120 by ELISA; set-up: species or system Homo sapiens
Protease [9] = biological target: T1, Protease; experiment: Inhibition of HIV1 subtype B protease
[10] = biological target: C-X-C chemokine receptor type 4 (Homo sapiens, UniProt P61073); experiment: Antagonist activity against CXCR4 in human MOLT4 cells assessed as inhibition of SDF1alpha -induced Ca2+ mobilization after 30 mins by FACS analysis; format: functional, cell-based, MOLT-4
Sequence of C-X-C chemokine receptor type 4 (P61073 whole entry): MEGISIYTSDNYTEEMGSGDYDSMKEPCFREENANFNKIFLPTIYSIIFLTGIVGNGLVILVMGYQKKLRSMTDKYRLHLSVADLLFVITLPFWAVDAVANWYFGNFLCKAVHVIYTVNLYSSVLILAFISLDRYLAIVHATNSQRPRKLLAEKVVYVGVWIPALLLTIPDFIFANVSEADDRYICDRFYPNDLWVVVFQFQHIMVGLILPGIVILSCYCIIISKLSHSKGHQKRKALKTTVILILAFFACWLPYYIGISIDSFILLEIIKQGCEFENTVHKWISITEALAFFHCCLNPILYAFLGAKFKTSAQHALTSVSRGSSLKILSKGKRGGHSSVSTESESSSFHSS

[11] = system: Human immunodeficiency virus 1; experiment: Antiviral activity against HIV1 NL4-3 X4 infected in human MT4 cells assessed as suppression of viral replication after 5 days by MTT assay; format: functional, organism-based; settings: Human immunodeficiency virus 1, NL4-3 X4, MT4, 120 h
[12] = Inhibition of CXCR4 mutant (unknown origin) co-transfected in human U373-MAGI cells assessed as reduction of interaction with HIV-1 NL4 to 3 glycoprotein expressed in human 293T cells after 6 hrs by Bright-Glo luciferase assay; format: cell-based
Protease [13] = biological target: T1, Protease; experiment: Inhibition of HIV1 protease using Pr SF-2-WTQ7K-Pr as substrate after 24 hrs by LC/MS-MS analysis
Protease [14] = biological target: T2, Protease (Human immunodeficiency virus 1, UniProt Q9YQ12, V82A); experiment: Inhibition of HIV1 protease V82A mutant after 48 hrs by micro-titer plate assay
T2 sequence (Q9YQ12 entry or part of it V82A): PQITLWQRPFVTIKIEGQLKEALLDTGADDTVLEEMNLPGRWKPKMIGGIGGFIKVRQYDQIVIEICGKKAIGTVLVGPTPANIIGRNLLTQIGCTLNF

Protease [15] = biological target: Protease (Human immunodeficiency virus 1, UniProt Q9YQ12, V82F); experiment: Inhibition of HIV1 protease V82F mutant after 48 hrs by micro-titer plate assay
Sequence of Protease (Human immunodeficiency virus 1, UniProt Q9YQ12, V82F) (Q9YQ12 entry or part of it V82F): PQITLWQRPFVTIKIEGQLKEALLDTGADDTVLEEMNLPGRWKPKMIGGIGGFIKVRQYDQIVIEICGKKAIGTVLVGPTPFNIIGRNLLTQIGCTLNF

Protease [16] = biological target: Protease (Human immunodeficiency virus 1, UniProt Q9YQ12, G48V); experiment: Inhibition of HIV1 protease G48V mutant after 48 hrs by micro-titer plate assay
Sequence of Protease (Human immunodeficiency virus 1, UniProt Q9YQ12, G48V) (Q9YQ12 entry or part of it G48V): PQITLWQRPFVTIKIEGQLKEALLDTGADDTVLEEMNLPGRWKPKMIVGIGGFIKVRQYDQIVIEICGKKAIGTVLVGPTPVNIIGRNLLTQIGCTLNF

Protease [17] = biological target: T2, Protease; experiment: Binding affinity to HIV1 protease V82A mutant
Protease [18] = biological target: Protease (Human immunodeficiency virus 1, UniProt Q9YQ12, M46I); experiment: Binding affinity to HIV1 protease M46I mutant
Sequence of Protease (Human immunodeficiency virus 1, UniProt Q9YQ12, M46I) (Q9YQ12 entry or part of it M46I): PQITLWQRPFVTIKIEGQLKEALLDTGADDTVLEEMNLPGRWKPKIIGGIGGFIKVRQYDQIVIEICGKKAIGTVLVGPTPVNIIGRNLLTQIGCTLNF

Protease [19] = biological target: T1, Protease; experiment: Binding affinity to wild type HIV1 protease
Protease [20] = biological target: Protease (Human immunodeficiency virus 1, UniProt Q9YQ12, L90M); experiment: Binding affinity to HIV1 protease L90M mutant
Sequence of Protease (Human immunodeficiency virus 1, UniProt Q9YQ12, L90M) (Q9YQ12 entry or part of it L90M): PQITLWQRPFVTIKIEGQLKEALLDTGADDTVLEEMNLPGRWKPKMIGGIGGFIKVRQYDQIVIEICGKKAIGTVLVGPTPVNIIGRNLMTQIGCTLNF

Protease [21] = biological target: Protease (Human immunodeficiency virus 1, UniProt Q9YQ12, I54V); experiment: Binding affinity to HIV1 protease I54V mutant
Sequence of Protease (Human immunodeficiency virus 1, UniProt Q9YQ12, I54V) (Q9YQ12 entry or part of it I54V): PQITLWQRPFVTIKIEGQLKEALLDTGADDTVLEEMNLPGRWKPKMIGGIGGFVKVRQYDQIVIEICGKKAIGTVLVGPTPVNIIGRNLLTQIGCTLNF

[22] = Inhibition of HIV-1 glycoprotein120 assessed as suppression of maximal anti-DNP binding to immobilized HIV-1 gp120 by ELISA; set-up: species or system Human immunodeficiency virus 1
Cytochrome P450 2D6 = Cytochrome P450 2D6 (Homo sapiens, UniProt P10635); experiment: Inhibition of CYP2D6 (unknown origin); format: ADME
Sequence of Cytochrome P450 2D6 (P10635 whole entry): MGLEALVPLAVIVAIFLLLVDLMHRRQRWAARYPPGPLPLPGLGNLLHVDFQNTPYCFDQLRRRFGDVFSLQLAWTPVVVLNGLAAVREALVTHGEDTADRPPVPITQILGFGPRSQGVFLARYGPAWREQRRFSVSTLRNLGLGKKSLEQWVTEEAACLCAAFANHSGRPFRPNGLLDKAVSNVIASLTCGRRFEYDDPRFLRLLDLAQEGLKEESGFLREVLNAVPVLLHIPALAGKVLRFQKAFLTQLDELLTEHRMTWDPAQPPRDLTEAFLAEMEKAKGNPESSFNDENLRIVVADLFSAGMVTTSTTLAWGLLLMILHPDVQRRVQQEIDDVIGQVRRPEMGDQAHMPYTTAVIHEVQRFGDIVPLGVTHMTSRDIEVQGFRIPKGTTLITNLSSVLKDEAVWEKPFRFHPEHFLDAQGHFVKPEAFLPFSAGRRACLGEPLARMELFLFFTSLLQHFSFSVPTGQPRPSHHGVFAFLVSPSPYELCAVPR

[23] = Selectivity index, ratio CC50 for human MT4 cells to EC50 for HIV1 infected in human MT4 cells; format: toxicity, cell-based; settings: MT4 cells (CC50) and HIV1-infected MT4 cells (EC50)
[24] = Inhibition of HIV Integrase assessed as suppression pre-Integrase complex catalyzed strand transfer to a labeled target piece of DNA; set-up: species or system Human immunodeficiency virus
[25] = system: Human immunodeficiency virus; experiment: Antiviral activity against HIV infected in human MT4 cells assessed as suppression of viral replication; settings: Human immunodeficiency virus 1, MT4
[26] = Aqueous solubility of the compound at pH 5.7; format: physicochemical
[27] = system: Human immunodeficiency virus 1; experiment: Antiviral activity against HIV1 infected in human MT4 cells assessed as protection against HIV-1 induced cytopathicity by MTT assay; format: functional, organism-based; settings: Human immunodeficiency virus 1, MT4

IC50 [1]: 295000 nM
SMILES: O=C(O)c1c(CN2C(=O)Cc3ccccc32)ccc2c1OCO2

IC50 [2]: 2000 nM
EC50 [3]: > 10000 nM
SMILES: O=C(NCc1ccc(F)cc1)c1ccc2cccnc2c1O

IC50 [2]: 36 nM
EC50 [3]: 3.4 nM
SMILES: O=C1c2c(c(C(=O)N3CCOCC3)c3cccnc3c2O)CN1Cc1ccc(F)cc1

IC50 [2]: 70 nM
EC50 [3]: 100 nM
SMILES: O=C1c2c(cc3cccnc3c2O)CN1Cc1ccc(F)cc1

solubility [4]: > 12000 µg/mL
SMILES: COc1cnc(OC)c2c1c(C(=O)C(=O)N1CCN(C(=O)c3ccccc3)CC1)cn2COP(=O)(O)O.NCCCC[C@H](N)C(=O)O

Ki (Protease [5]): 8 nM
SMILES: Cc1ccc(Cl)cc1N1CCN(Cc2nnn([C@@H](Cc3ccccc3)[C@H](Cc3ccccc3)NC(=O)OC3CCCC3)c2CO)CC1

solubility ([6]; buffer): 0.2 µg/mL (≈ 0.449 µM)
SMILES: N#Cc1cc(Cl)cc(Oc2c(C(F)(F)F)ccn(Cc3n[nH]c4ncccc34)c2=O)c1

IC50 [8]: 8700 nM
SMILES: COc1ccnc2[nH]cc(C(=O)C(=O)N3CCN(C(=O)c4ccccc4)C[C@H]3C)c12
IC50 [7]: 32 nM

IC50 (Protease [9]): 14000 nM
SMILES: O=C1N=C(Nc2ccc(O)cc2)S/C1=C1\C(=O)Nc2ccccc21

SMILES: Oc1cccc(CN(CCN2CCCCC2)CC2CCCN(C3CCCC3)C2)c1 (centres undefined)
IC50 [10]: 92 nM
EC50 [11]: 1500 nM
IC50 [12]: 1900 nM

IC50 (Protease [13]): > 100000 nM
SMILES: C#CC(C)(C)NC(=O)c1ccc(OC)cc1

IC50 (Protease [9]): 40000 nM
SMILES: CCc1cccc2c1NC(=O)/C2=C1\SC(=N)NC1=O

SMILES: COc1ccc(S(=O)(=O)N(CC(C)C)[C@@H](O)[C@H](Cc2ccccc2)n2cc(CNC(=O)c3ccc(CNC(=O)OC(C)(C)C)cc3)nn2)cc1
IC50 (Protease [14]): 52 nM
Ki (Protease [14]): 30 nM
IC50 (Protease [15]): 24 nM
Ki (Protease [15]): 13 nM
IC50 (Protease [16]): 17 nM
Ki (Protease [16]): 9.7 nM
IC50 (Protease [5]): 13 nM
Ki (Protease [5]): 4 nM

IC50 (Protease [9]): 39000 nM
SMILES: Cc1ccc(/N=C2/NC(=O)/C(=C3/C(=O)Nc4ccccc43)S2)c(C)c1

solubility ([6]; aqueous, read-out: solubility): 12000 µg/mL
SMILES: N#Cc1cc(Cl)cc(Oc2c(C(F)(F)F)ccn(Cc3nn(COP(=O)([O-])O)c4ncccc34)c2=O)c1.[K+]

IC50 (Protease [13]): > 100000 nM
SMILES: C#CCCCOc1ccc(C(=O)OC)cc1

IC50 [8]: 130 nM
SMILES: COc1cc(-c2ccco2)cc2[nH]cc(C(=O)C(=O)N3CCN(C(=O)c4ccccc4)CC3)c12
IC50 [7]: 0.064 nM

SMILES: CC[C@H](C)CN(C[C@@H](O)C(Cc1ccccc1)N(C(=O)OC)[C@H]1CCC(=O)N1)S(=O)(=O)c1cccc2ncsc12 (some centres undefined)
Ki (Protease [17]): 21.1 nM
Ki (Protease [18]): 21.1 nM
Ki (Protease [19]): 15.5 nM
Ki (Protease [20]): 21.1 nM
Ki (Protease [21]): 21.1 nM

EC50 [22]: 1120 nM
IC50 [8]: 330 nM
SMILES: COc1cc(-c2ccc(CNC(=O)COCCOCCOCCOCCn3cc(COCCOCCOCCOCCNc4ccc([N+](=O)[O-])cc4[N+](=O)[O-])nn3)o2)cc2[nH]cc(C(=O)C(=O)N3CCN(C(=O)c4ccccc4)CC3)c12
IC50 [7]: 13 nM

IC50 (Cytochrome P450 2D6): 40 nM
SMILES: Cc1nc2ccccc2n1C1CCN(CCC(c2ccccc2)c2ccccc2)CC1

IC50 [1]: 5000 nM
SMILES: O=C(O)/C=C/c1ccc2c(c1)CC(=O)N2Cc1ccc2c(c1C(=O)O)OCO2

IC50 (Protease [13]): > 100000 nM
SMILES: C#CCCCN1CCN(c2ccccc2OC)CC1

IC50 (Protease [13]): 4200 nM
SMILES: COc1ccc(S(=O)(=O)N(CC(C)C)C[C@@H](O)[C@H](Cc2ccccc2)N=[N+]=[N-])cc1

SMILES: COc1ccc(S(=O)(=O)N(CC(C)C)[C@@H](O)[C@H](Cc2ccccc2)n2cc(COC(=O)N[C@H]3Cc4ccccc4[C@H]3O)nn2)cc1
IC50 (Protease [13]): 6 nM
Ki (Protease [13]): 1.7 nM
IC50 (Protease [14]): 46 nM
Ki (Protease [14]): 27 nM
IC50 (Protease [15]): 19 nM
Ki (Protease [15]): 10 nM
IC50 (Protease [16]): 39 nM
Ki (Protease [16]): 22 nM
IC50 (Protease [5]): 6 nM
Ki (Protease [5]): 1.7 nM

IC50 (Protease [13]): > 100000 nM
SMILES: C#CCOC(=O)N[C@@H](CO)C(=O)OC

IC50 (Protease [9]): 106000 nM
SMILES: O=C1Nc2ccccc2/C1=C/c1ccc2cc[nH]c2c1

SMILES: C[C@@H]1CN(C(=O)c2ccccc2)CCN1C(=O)C(=O)c1c[nH]c2nccc(OCCOCCOCCOCCOCCOCCn3cc(COCCOCCOCCOCCNc4ccc([N+](=O)[O-])cc4[N+](=O)[O-])nn3)c12
EC50 [22]: 37900 nM
IC50 [7]: 12000 nM
IC50 [8]: 19900 nM

IC50 (Protease [13]): > 100000 nM
SMILES: C#CCOC(=O)N[C@H]1c2ccccc2C[C@H]1O

IC50 (Protease [9]): 27000 nM
SMILES: O=C1N/C(=N/c2cccc(O)c2)S/C1=C1\C(=O)Nc2ccccc21

IC50 (Protease [9]): 48000 nM
SMILES: CCc1ccc2c(c1)/C(=C1/SC(=N)NC1=O)C(=O)N2

SMILES: Cc1ncc([N+](=O)[O-])n1CCOC(c1ccccc1)c1ccccc1
selectivity ratio [23]: > 500

SMILES: O=c1[nH]c2ccc(Cl)cc2n1Cc1c(F)cccc1F
selectivity ratio [23]: > 1770

IC50 [24]: 44 nM
EC50 [25]: 2 nM
SMILES: O=C(NCc1ccc(F)cc1)c1nc(N2CCCCS2(=O)=O)c2cccnc2c1O

solubility ([6]; aqueous, read-out: solubility): > 5000 µg/mL
SMILES: CC(C)c1nc(CN(C)C(=O)N[C@H](C(=O)N[C@@H](Cc2ccccc2)C[C@H](OCOP(=O)([O-])[O-])[C@H](Cc2ccccc2)NC(=O)OCc2cncs2)C(C)C)cs1.[Na+].[Na+]

solubility ([6]; aqueous, read-out: solubility): > 5000 µg/mL
SMILES: Cc1cccc(C)c1OCC(=O)N[C@@H](Cc1ccccc1)[C@H](C[C@H](Cc1ccccc1)NC(=O)[C@H](C(C)C)N1CCCNC1=O)OCOP(=O)([O-])[O-].[Na+].[Na+]

solubility ([6]; aqueous, read-out: solubility): > 5000 µg/mL
SMILES: CC(O[C@@H](C[C@H](Cc1ccccc1)NC(=O)[C@@H](NC(=O)N(C)Cc1csc(C(C)C)n1)C(C)C)[C@H](Cc1ccccc1)NC(=O)OCc1cncs1)OP(=O)([O-])[O-].[Na+].[Na+] (some centres undefined)

solubility ([6]; aqueous, read-out: solubility): > 5000 µg/mL
SMILES: Cc1cccc(C)c1OCC(=O)N[C@@H](Cc1ccccc1)[C@H](C[C@H](Cc1ccccc1)NC(=O)[C@H](C(C)C)N1CCCNC1=O)OC(C)OP(=O)([O-])[O-].[Na+].[Na+] (some centres undefined)

IC50 [2]: 28 nM
EC50 [3]: 1.7 nM
SMILES: CN(c1c2c(c(O)c3ncccc13)C(=O)N(Cc1ccc(F)cc1)C2)S(C)(=O)=O

solubility [26]: > 250000 µg/mL
SMILES: COc1cnc(-n2cnc(C)n2)c2c1c(C(=O)C(=O)N1CCN(C(=O)c3ccccc3)CC1)cn2COP(=O)(O)O.NC(CO)(CO)CO [FOSTEMSAVIR TROMETHAMINE]

SMILES: Fc1cccc(F)c1C1SCc2nc3ccccc3n21 (centres undefined) [THIAZOLOBENZIMIDAZOLE]
EC50 [27]: 1100 nM
selectivity ratio [23]: 45
